Measured values from patent US5292734A, “Angiotensin II receptor blocking 2,3,6 substituted quinazolinones” (American Cyanamid Company, priority 1993, dated 1994).

Biological target: T1, Angiotensin II Receptor (Bos taurus, UniProt P25104)
T1 construct: The brownish tissue forming the adrenal cortex is scraped off and finely minced with scissors before homogenization; from tissue; host or cells: beef adrenal cortex, microsomal membranes (100,000 x g pellet)
T1 sequence (P25104 1-359): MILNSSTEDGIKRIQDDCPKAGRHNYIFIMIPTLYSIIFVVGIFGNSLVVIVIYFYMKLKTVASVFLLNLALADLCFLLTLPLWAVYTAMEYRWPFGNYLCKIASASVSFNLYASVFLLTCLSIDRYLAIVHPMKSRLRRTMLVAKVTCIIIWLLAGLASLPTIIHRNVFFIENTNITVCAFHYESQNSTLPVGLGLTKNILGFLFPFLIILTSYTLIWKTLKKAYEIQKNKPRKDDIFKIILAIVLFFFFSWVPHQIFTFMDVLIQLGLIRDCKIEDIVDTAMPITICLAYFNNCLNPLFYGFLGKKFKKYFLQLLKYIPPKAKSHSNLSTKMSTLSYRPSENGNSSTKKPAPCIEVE
Assay: Receptor binding assay: binding of [^125 I](Sar^1,Ile^8)AngII
Conditions: beef adrenal cortex membranes, 60 min, room temperature
Description: Beef adrenals are obtained from a local slaughter house (Maxwell-Cohen). [^125 I](Sar^1,Ile^8)AngII, S. A. 2200 Ci/mmole, is purchased from Dupont (NEN®, Boston, Mass.). All unlabeled AngII analogs, Dimethylsulfoxide (DMSO), nucleotides, bovine serum albumin (BSA) are purchased from Sigma Chemical Co., St. Louis, Mo. U.S.A.
Approximately sixteen (16) to twenty (20) beef adrenal glands are processed as follows: fresh adrenal glands received on crushed ice are cleaned of fatty tissues and the tough membranes encapsulating the glands are removed and discarded. […] A 100 ul aliquot is withdrawn and the protein content of the preparation is determined by the Lowry's method (Lowry, O. H., Rosebrough, N. P., Farr, A. L. and Randall, R. J., Protein measurement with Polin phenol reagent. J. Biol. Chem., […], 265-275, 1951). […]
The binding of [^125 I](Sar^1 Ile^8)AngII to microsomal membranes is initiated by the addition of reconstituted membranes (1:10 vols.) in freshly made 50.0 mM Tris.HCl buffer, pH 7.4 containing 0.25% heat inactivated bovine serum albumin (BSA): 80 ul membrane protein (10 to 20 ug/assay) to wells already containing 100 ul of incubation buffer (as described above) and 20 ul [^125 I](Sar^1 Ile^8)AngII (Specific Activity, 2200 Ci/mmole). Non-specific binding is measured in the presence of 1.0 uM unlabeled (Sar^1,Ile^8)AngII, added in 20 ul volume. […]

CCCCc1nc2ccc(C(C)(O)CC3CCCN3)cc2c(=O)n1Cc1ccc(-c2ccccc2-c2nnn[nH]2)cc1 (stereo not drawn) [Example 79, CIS-2-Butyl-6-[1-hydroxy-1-methyl-2-(2-pyrrolidinyl)ethyl]-3-[[21-(1H-tetrazol-5-yl)[1,1'-biphenyl]-4-yl]methyl]-4(3H)-quinazolinone]
IC50: 3.5 nM
